The target in this assay is full-length recombinant human FYN A (Homo sapiens (Human), UniProt P06241). Nature of the assay: ADP-Glo Kinase Assay of FYN kinase inhibition. The class given is biochemical. The conditions noted are these: secondary screen, re-synthesized and expanded compounds. The essentials:
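GST-tagged full-length FYN A (baculovirus, Sf9) at 3 pg preincubated 30 min RT with compound (10-point 3-fold series from 10 μM) in Tris pH 7.5/MgCl2 buffer. 12-mer tyrosine peptide plus 12.5 pmol ATP added, 90 min RT; ADP measured by ADP-Glo luminescence, IC50 from dose-response.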
A general note: ADP-Glo turns the ADP formed in a reaction into a luminescent signal.

SMILES strings stand for the structures.

full-length recombinant human FYN A, sequence (P06241 whole entry): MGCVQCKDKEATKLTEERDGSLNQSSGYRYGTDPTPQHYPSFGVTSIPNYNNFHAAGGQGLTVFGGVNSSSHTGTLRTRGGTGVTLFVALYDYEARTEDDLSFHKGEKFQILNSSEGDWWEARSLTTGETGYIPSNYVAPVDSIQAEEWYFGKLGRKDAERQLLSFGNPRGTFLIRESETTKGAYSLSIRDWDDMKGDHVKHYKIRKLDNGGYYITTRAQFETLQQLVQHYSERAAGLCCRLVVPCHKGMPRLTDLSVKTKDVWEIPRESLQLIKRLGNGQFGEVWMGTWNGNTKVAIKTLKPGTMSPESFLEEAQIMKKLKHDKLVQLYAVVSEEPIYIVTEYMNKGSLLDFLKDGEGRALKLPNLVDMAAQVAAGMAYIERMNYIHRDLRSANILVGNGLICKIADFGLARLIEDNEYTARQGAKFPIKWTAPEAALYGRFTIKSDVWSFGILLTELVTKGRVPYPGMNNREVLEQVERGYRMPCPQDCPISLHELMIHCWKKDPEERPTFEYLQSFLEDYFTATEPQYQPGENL

As usually defined, the IC50 is the concentration that gives 50% inhibition. Consider `COc1cc(-c2cc(-c3cc(OC)c(OC)c(OC)c3)cnc2N)ccc1O` [BF000313035, 4-[2-amino-5-(3,4,5-trimethoxy-phenyl)-3-pyridyl]-2-methoxy-phenol], for which the IC50 stood at 0.116 µM.
On to `COc1cc(-c2cc(-c3ccc(C(N)=O)cc3)cnc2N)ccc1O` [BF000313038, 4-[6-amino-5-(4-hydroxy-3-methoxy-phenyl)-3-pyridyl]-benzamide], for which the 50% inhibitory concentration (IC50) came out at 0.214 µM.
As for `COc1cc(-c2cc(-c3ccc(S(C)(=O)=O)cc3)cnc2N)ccc1O` [BF000313040, 4-[2-amino-5-(4-methyl-sulfolyl-phenyl)-3-pyridyl]-2-methoxy-phenol], the IC50 amounted to 0.316 µM.
For `COc1cc(-c2cnc(N)c(-c3ccc(O)cc3)c2)cc(OC)c1OC` [BF000313556, 4-[2-amino-5-(3,4,5-trimethoxy-phenyl)-3-pyridyl]-phenol], the IC50 is 0.288 µM.
As for `NC(=O)c1ccc(-c2cnc(N)c(-c3ccc(O)cc3)c2)cc1` [BF000313559, 4-[6-amino-5-(4-hydroxy-phenyl)-3-pyridyl]-benzamide], the IC50 stood at 1.09 µM.
To `CC(=O)Nc1cccc(-c2cnc(N)c(-c3ccc(O)cc3)c2)c1` [BF000313562, N-[3-[6-amino-5-(4-hydroxy-phenyl)-3-pyridyl]-phenyl]-acetamide] belongs 0.898 µM; to `CS(=O)(=O)c1ccc(-c2cnc(N)c(-c3ccc(O)cc3)c2)cc1` [BF000313563, 4-[2-amino-5-(4-methyl-sulfonyl-phenyl)-3-pyridyl)-phenol], 1.55 µM; to `CN(C)C(=O)c1cccc(-c2cn3c(-c4ccc(O)cc4)cnc3cn2)c1` [BF000333343, 3-[3-(4-hydroxy-phenyl)-imidazo[1,2-a]pyrazin-6-yl]-N,N-dimethyl-benzamide], 0.871 µM.
With `COc1cc(-c2cnc3cnc(-c4cnn(C)c4)cn23)ccc1O` [BF000333452, 2-methoxy-4-[6-(1-methyl-pyrazol-4-yl)-imidazo[1,2-a]pyrazin-3-yl]phenol], the IC50 worked out at 0.624 µM.
To `CN(C)CCCNC(=O)c1ccc(-c2cn3c(-c4ccc(O)cc4)cnc3cn2)cc1` [BF000333874, N-[3-(dimethyl-amino)-propyl]-4-[3-(4-hydroxy-phenyl)-imidazo[1,2-a]pyrazin-6-yl]-benzamide] belongs 0.705 µM.
To `CN1CCN(c2ccc(-c3cn4c(-c5ccc(O)cc5)cnc4cn3)cc2)CC1` [BF000333878, 4-[6-[4-(4-methyl-piperazin-1-yl)phenyl]-imidazo[1,2-a]pyrazin-3-yl]phenol] belongs 0.465 µM.
As for `CN(C)CCNC(=O)c1ccc(-c2cn3c(-c4ccc(O)cc4)cnc3cn2)cc1` [BF000333881, N-[2-(dimethyl-amino)-ethyl]-4-[3-(4-hydroxy-phenyl)-imidazo[1,2-a]pyrazin-6-yl]-benzamide], the IC50 came out at 0.486 µM.
For `O=C(NCCO)c1ccc(-c2cn3c(-c4ccc(O)cc4)cnc3cn2)cc1` [BF000333882, N-(2-hydroxy-ethyl)-4-[3-(4-hydroxy-phenyl)-imidazo[1,2-a]pyrazin-6-yl]benzamide], the 50% inhibitory concentration (IC50) was 0.74 µM.
Take `COc1cc(-c2cnc3cnc(-c4ccc(C(=O)NCCCN(C)C)cc4)cn23)ccc1O` [BF000334019, N-[3-(dimethyl-amino)-propyl]-4-[3-(4-hydroxy-3-methoxy-phenyl)-imidazo[1,2-a]pyrazin-6-yl]benzamide]: the 50% inhibitory concentration (IC50) worked out at 0.647 µM.
Take `COc1cc(-c2cnc3cnc(-c4cccc(C(=O)NCCO)c4)cn23)ccc1O` [BF000334020, N-(2-hydroxy-ethyl)-3-[3-(4-hydroxy-3-methoxy-phenyl)-imidazo[1,2-a]pyrazin-6-yl]benzamide]: the IC50 was 1.28 µM.
To `COc1cc(-c2cnc3cnc(-c4ccc(C(=O)NCCN(C)C)cc4)cn23)ccc1O` [BF000334023, N-[2-(dimethyl-amino)ethyl]-4-[3-(4-hydroxy-3-methoxy-phenyl)-imidazo[1,2-a]pyrazin-6-yl]benzamide] belongs 0.337 µM; to `CN(C)CCNC(=O)c1ccc(-c2cn3c(-c4ccc(Oc5ccccc5)cc4)cnc3cn2)cc1` [BF000334031, N-[2-(dimethyl-amino)ethyl]-4-[3-(4-phenoxy-phenyl)-imidazo[1,2-a]pyrazin-6-yl]-benzamide], 0.222 µM.
To `O=C(NCCO)c1ccc(-c2cn3c(-c4ccc(Oc5ccccc5)cc4)cnc3cn2)cc1` [BF000334032, N-(2-hydroxy-ethyl)-4-[3-(4-phenoxy-phenyl)-imidazo-[1,2-a]-pyrazin-6-yl]benzamide] belongs 0.464 µM; to `COc1cc(-c2cc(-c3ccc(N4CCNCC4)cc3)cnc2N)ccc1O` [BF000707279, 4-[2-amino-5-(4-piperazin-1-ylphenyl)-3-pyridyl]-2-methoxy-phenol], 0.0609 µM; to `CN1CCN(c2ccc(-c3cnc(N)c(-c4ccc(O)cc4)c3)cc2)CC1` [BF000710044, 4-[2-amino-5-[4-(4-methyl-piperazin-1-yl)phenyl]-3-pyridyl]-phenol], 0.521 µM.
To `c1ccc(CNc2nn3c(-c4cccnc4)cnc3s2)cc1` [BF000714845, N-benzyl-5-(3-pyridyl)-imidazo[2,1-b][1,3,4]-thiadiazol-2-amine] belongs 0.634 µM; to `CN(C)C(=O)c1cccc(-c2cnc3sc(NCc4ccccc4)nn23)c1` [BF000714847, 3-[2-(benzyl-amino)-imidazo[2,1-b][1,3,4]-thiadiazol-5-yl]-N,N-dimethyl-benzamide], 1.23 µM; to `COc1cncc(-c2cnc3sc(NCc4ccccc4)nn23)c1` [BF000714862, N-benzyl-5-(5-methoxy-3-pyridyl)-imidazo[2,1-b][1,3,4]-thiadiazol-2-amine], 0.217 µM.
Consider `COc1cncc(-c2cnc3sc(NCC4CCOCC4)nn23)c1` [BF000714923, 5-(5-methoxy-3-pyridyl)-N-(tetra-hydropyran-4-ylmethyl)-imidazo[2,1-b][1,3,4]-thiadiazol-2-amine], for which the IC50 amounted to 0.293 µM.
To `COc1cncc(-c2cnc3sc(NCc4cccs4)nn23)c1` [BF000714968, 5-(5-methoxy-3-pyridyl)-N-(2-thienyl-methyl)-imidazo[2,1-b][1,3,4]-thiadiazol-2-amine] belongs 0.437 µM; to `COc1cncc(-c2cnc3sc(NCc4ccc5c(c4)OCO5)nn23)c1` [BF000714981, N-(1,3-benzodioxol-5-ylmethyl)-5-(5-methoxy-3-pyridyl)-imidazo[2,1-b][1,3,4]-thiadiazol-2-amine], 0.289 µM; to `CN(C)C(=O)c1cccc(-c2cnc3sc(NCC4CCOCC4)nn23)c1` [BF000715802, N,N-dimethyl-3-[2-(tetra-hydropyran-4-ylmethyl-amino)-imidazo[2,1-b][1,3,4]-thiadiazol-5-yl]benzamide], 1.36 µM.
To `COc1ccc(-c2cnc3sc(NC4CCC(O)CC4)nn23)cc1OC` (centres unmarked) [BF000717406, 4-[[5-(3,4-dimethoxy-phenyl)-imidazo[2,1-b][1,3,4]-thiadiazol-2-yl]amino]-cyclohexanol] belongs 0.44 µM; to `CN(C)C(=O)c1cccc(-c2cnc3sc(NC4CCC(O)CC4)nn23)c1` (centres unmarked) [BF000717418, 3-[2-[(4-hydroxy-cyclohexyl)-amino]-imidazo[2,1-b][1,3,4]-thiadiazol-5-yl]-N,N-dimethyl-benzamide], 0.288 µM.
To `COc1cc(-c2cnc3sc(NCC4CCOCC4)nn23)ccc1O` [BF000717555, 2-methoxy-4-[2-(tetrahydro-pyran-4-ylmethyl-amino)-imidazo[2,1-b][1,3,4]-thiadiazol-5-yl]phenol] belongs 0.71 µM.
Take `OCCCNc1ccc2ncc(-c3ccncc3)n2n1` [BF000722253, 3-[[3-(4-pyridyl)-imidazo[1,2-b]pyridazin-6-yl]amino]-propan-1-ol]: the half-inhibitory concentration (IC50) worked out at 0.538 µM.
As for `COc1cc(-c2ccc3ncc(-c4cccc(NC(C)=O)c4)n3n2)ccc1O` [BF000726183, N-(3-[6-(4-hydroxy-3-methoxy-phenyl)-imidazo[1,2-b]pyridazin-3-yl]phenyl]-acatamide], the IC50 was determined as 0.167 µM.
To `OCc1cccc(-c2cnc3ccc(-c4cccc(O)c4)nn23)c1` [BF000726195] belongs 1.17 µM; to `COc1ccc(-c2ccc3ncc(-c4cccc(NC(C)=O)c4)n3n2)cc1OC` [BF000726345, N-[3-[6-(3,4-dimethoxy-phenyl)-imidazo[1,2-a]pyridazin-3-yl]phenyl]-acatamide], 0.313 µM.
Consider `CC(=O)Nc1cccc(-c2ccc3ncc(-c4cccc(NC(C)=O)c4)n3n2)c1` [BF000726346, N-[3-[3-(3-acetamido-phenyl)-imidazo[1,2-b]pyridazin-6-yl]phenyl]-acetamide], for which the IC50 was 0.648 µM.
To `Oc1cccc(-c2cnc3ccc(-c4ccncc4)nn23)c1` [BF000726352, 3-[6-(4-pyridyl)-imidazo[1,2-b]pyridazin-3-yl]phenol] belongs 0.342 µM.
Consider `OCc1cccc(-c2cnc3ccc(-c4ccncc4)nn23)c1` [BF000726364, [3-[6-(4-pyridyl)-imidpzo[1,2-b]pyridazin-3-yl]phenyl]-methanol], for which the IC50 stood at 0.973 µM.
To `COc1ccc(-c2ccc3ncc(-c4cccc(CO)c4)n3n2)cc1OC` [BF000726366, [3-[6-(3,4-dimethoxy-phenyl)-imidazo[1,2-b]pyridazin-3-yl]phenyl]-methanol] belongs 0.893 µM.
To `CC(=O)Nc1cccc(-c2ccc3ncc(-c4cccc(CO)c4)n3n2)c1` [BF000726367, N-[3-[3-[3-(hydroxy-methyl)phenyl]-imidazo[1,2-b]pyridazin-6-yl]phenyl]-acetamide] belongs 1.52 µM.
`COc1cc(-c2cnc3ccc(-c4ccc(OC)c(OC)c4)nn23)ccc1O` [BF000726453, 4-[6-(3,4-dimethoxy-phenyl)-imidazo[l,2-b]pyridazin-3-yl]-2-methoxy-phenol]: the IC50 came out at 0.0394 µM.
Consider `COc1cc(-c2cnc3ccc(-c4cccc(NC(C)=O)c4)nn23)ccc1O` [BF000726454, N-[3-[3-(4-hydroxy-3-methoxy-phenyl)-imidazo[1,2-b]pyridazin-6-yl]phenyl]-acetamide], for which the IC50 worked out at 0.104 µM.

The values are drawn from US10688093B2, “Methods, compositions, and uses of novel Fyn kinase inhibitors” (priority 2015, dated 2020).
